The source of these data is PubChem BioAssay (NCI).

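Tested at 5 concentrations; 48 h exposure; 96-well plates; endpoints linearly interpolated, else capped at highest concentration. At the TGI there is no net growth.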

Some test systems named below: A549 NSCLC; CCRF-CEM leukemia; COLO 205 colon; IGROV1 ovarian; MCF7 breast; MDA-MB-231 breast; MDA-MB-435; OVCAR-4 ovarian; OVCAR-8 ovarian; SF-295 CNS; SK-MEL-5 melanoma; U251 CNS.
Holding throughout (assay): NCI tumour cell line growth inhibition, 48 h

With `c1ccc(COC[C@H]2C3OCC([C@H](OCc4ccccc4)[C@H]3OCc3ccccc3)N2Cc2ccccc2)cc1` (stereo partly drawn), the TGI in the assay on A549 NSCLC, in the assay on CCRF-CEM leukemia, with COLO 205 colon, with IGROV1 ovarian, in the assay on MCF7 breast and with MDA-MB-231 breast was > 100 µM throughout. Further, the TGI in the assay with MDA-MB-435, with OVCAR-4 ovarian, with OVCAR-8 ovarian, in the assay with SF-295 CNS, with SK-MEL-5 melanoma and in the assay on U251 CNS was > 100 µM in each case.

As for `N#Cc1c(N)c2c(c(-c3ccccc3)c1-c1ccccc1)C(=O)N(O)C2=O`, the TGI is > 100 µM in the assay on A549 NSCLC; > 100 µM with CCRF-CEM leukemia; 52.2 µM with COLO 205 colon; 75.2 µM with IGROV1 ovarian; > 100 µM with MCF7 breast; > 100 µM with MDA-MB-231 breast. Moreover, the TGI with MDA-MB-435, in the assay with OVCAR-4 ovarian, in the assay with OVCAR-8 ovarian, with SF-295 CNS, in the assay with SK-MEL-5 melanoma and in the assay with U251 CNS was > 100 µM throughout.

With `O=C(CCN1CCCC1)c1ccc(Oc2ccc(F)cc2)cc1`, the TGI is > 100 µM with A549 NSCLC; 46.7 µM in the assay with CCRF-CEM leukemia; 56.7 µM in the assay on COLO 205 colon; > 100 µM in the assay with IGROV1 ovarian; 32.3 µM with MCF7 breast; > 100 µM in the assay with MDA-MB-231 breast. The TGI with MDA-MB-435, in the assay with OVCAR-4 ovarian, in the assay on OVCAR-8 ovarian, in the assay with SF-295 CNS, with SK-MEL-5 melanoma and with U251 CNS was > 100 µM throughout.

As for `O=C1NC(N2CCCCC2)=N/C1=C\c1ccco1`, the TGI with A549 NSCLC, in the assay on CCRF-CEM leukemia, in the assay with COLO 205 colon, in the assay on IGROV1 ovarian, in the assay on MCF7 breast and in the assay on MDA-MB-231 breast was > 100 µM each time. Also, the TGI with MDA-MB-435, with OVCAR-4 ovarian, in the assay on OVCAR-8 ovarian, in the assay on SF-295 CNS, with SK-MEL-5 melanoma and in the assay on U251 CNS was > 100 µM throughout.
